EC50 data for 35 molecules are collected here from patent US8124647B2 (priority 2002, dated 2012).

The target in assay [1] is T1, human androgen receptor (Homo sapiens, UniProt P10275).
T1 construct: expressed in transfected cells; host or cells: CHO cells, cell line CHO-AR-pMMTV-LUC 1G12-A5-CA
T1 sequence (P10275 1-920): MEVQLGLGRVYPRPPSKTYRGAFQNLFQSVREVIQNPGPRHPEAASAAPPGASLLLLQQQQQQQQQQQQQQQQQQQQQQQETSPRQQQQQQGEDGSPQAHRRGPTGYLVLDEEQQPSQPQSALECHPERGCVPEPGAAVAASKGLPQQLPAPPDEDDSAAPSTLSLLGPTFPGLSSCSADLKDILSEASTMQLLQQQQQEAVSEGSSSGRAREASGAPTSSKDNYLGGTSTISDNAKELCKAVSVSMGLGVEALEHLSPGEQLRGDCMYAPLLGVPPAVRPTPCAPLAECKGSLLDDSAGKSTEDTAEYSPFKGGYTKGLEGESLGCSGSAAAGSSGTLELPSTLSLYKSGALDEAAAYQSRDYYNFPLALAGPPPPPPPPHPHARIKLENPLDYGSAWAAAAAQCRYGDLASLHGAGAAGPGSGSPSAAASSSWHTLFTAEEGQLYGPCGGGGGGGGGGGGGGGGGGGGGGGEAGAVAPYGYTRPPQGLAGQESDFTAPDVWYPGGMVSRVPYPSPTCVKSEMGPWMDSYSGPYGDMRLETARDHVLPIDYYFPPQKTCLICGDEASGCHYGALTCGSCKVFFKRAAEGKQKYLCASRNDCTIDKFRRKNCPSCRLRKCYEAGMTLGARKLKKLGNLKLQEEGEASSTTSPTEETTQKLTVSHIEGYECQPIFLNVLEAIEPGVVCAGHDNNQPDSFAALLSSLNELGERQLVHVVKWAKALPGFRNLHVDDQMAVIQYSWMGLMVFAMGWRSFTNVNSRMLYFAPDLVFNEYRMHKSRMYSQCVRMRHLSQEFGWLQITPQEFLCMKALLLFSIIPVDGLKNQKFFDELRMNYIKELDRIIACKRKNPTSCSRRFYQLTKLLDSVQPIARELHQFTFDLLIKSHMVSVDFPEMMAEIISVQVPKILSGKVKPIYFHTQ
The assay can be described thus: androgenic activity (EC50 and intrinsic activity), transactivation bioassay in CHO-AR-pMMTV-LUC cells (Table 4). It counts as cell-based. How it is done:
(§1) Compounds were tested for their Androgen Receptor activity in a transactivation assay and in a binding assay.
(§2) The (anti-)androgenic activity of test compounds (EC50 and intrinsic activity) was determined in an in vitro bioassay of Chinese hamster ovary (CHO) cells stably transfected with the human androgen receptor expression plasmid and a reporter plasmid in which the MMTV-promoter is linked to the luciferase reporter gene. The cell-line CHO-AR-pMMTV-LUC 1G12-A5-CA is described in Schoonen et al. (2000), Journal of Steroid Biochemistry and Molecular Biology 74(4):213-222. The antiandrogenic activity of a test compound was determined by the inhibition of the transactivation via the androgen receptor of the enzyme luciferase in the presence of 1 nM DHT (5α-dihydrotestosterone, 17β-hydroxy-5α-androstan-3-one). Intrinsic activity of antiandrogenic activity was determined in the presence of the reference antiandrogen 2-Hydroxy-2-methyl-N-(4-nitro-3-trifluoromethyl-phenyl)-propionamide(Hydroxyflutamide), and set at 100%. For androgenic activity, maximal intrinsic activity in the presence of 100 nM DHT was set at 100%.

For assay [2], the target named is T1, human androgen receptor. The assay can be described thus: cell-based. The settings on record: in the presence of 1 nM DHT. How it is done: as §1, §2
[3] abbreviates: androgenic activity, read-out: ago EC50.
Where [4] appears, read: antiandrogenic activity, read-out: ant EC50.

pEC50: −log10 of the molar value.

As a reminder, the pEC50 is the negative decadic logarithm of the EC50, by convention in mol/L.

Take `NC(=O)c1ccc2c(Sc3ccccc3[N+](=O)[O-])cn(Cc3cc(F)cc(F)c3)c2c1` [Compound 33, 1-(3,5-Difluoro-benzyl)-3(2-nitro-phenylsulfanyl)-1H-indole-6-carboxylic acid amide]: the results for the pEC50 in assay [1] (setting [3]) and in assay [2] (setting [4]) were above 8.30 and below 5.00, respectively. For `CN1CCN(C(=O)c2ccc3c(Sc4ccccc4[N+](=O)[O-])cn(Cc4cc(F)cc(F)c4)c3c2)CC1` [Compound 29], in that order: 7.00 to 8.30 and below 5.00. Consider `O=[N+]([O-])c1ccc2c(Sc3ccccc3[N+](=O)[O-])cn(Cc3cc(F)cc(F)c3)c2c1` [Compound 60], for which the pEC50 in assay [1] (ago EC50, androgenic activity) was above 8.30; in assay [2] (ant EC50, antiandrogenic activity), below 5.00. As for `COc1ccc2c(Sc3ccccc3[N+](=O)[O-])cn(Cc3cccc(C#N)c3)c2c1` [Compound 68], the pEC50 in assay [1] (setting [3]) was above 8.30; in assay [2] (setting [4]), below 5.00. The matching figures for `COc1ccc2c(Sc3ccccc3[N+](=O)[O-])cn(CC3CCCCC3)c2c1` [Compound 89]: 7.00 to 8.30 and above 8.30. Turning to `COc1ccc2c(Sc3ccccc3[N+](=O)[O-])cn(Cc3ccccc3)c2c1` [Compound 92], the pEC50 was above 8.30 in assay [1] (setting [3]) and below 5.00 in assay [2] (setting [4]). For the molecule `COc1ccc2c(Sc3ccccc3[N+](=O)[O-])cn(Cc3cc(F)cc(F)c3)c2c1` [Compound 63, 1-(3,5-Difluoro-benzyl)-6-methoxy-3-(2-nitro-phenylsulfanyl)-1H-indole], the pEC50 in assay [1] (setting [3]) is above 8.30; in assay [2] (setting [4]), below 5.00.

As to `COC(=O)c1ccccc1Sc1cn(Cc2cc(F)cc(F)c2)c2cc(OC)ccc12` [Compound 19, 2-[1-(3,5-Difluoro-benzyl)-6-methoxy-1H-indol-3-ylsulfanyl]-benzoic acid methyl ester], the figures for the pEC50 in assay [1] (setting [3]) and in assay [2] (setting [4]) were above 6.00 and below 5.00, respectively. The matching figures for `COc1ccc2c(Sc3ccccc3[N+](=O)[O-])cn(Cc3cccc(Cl)c3)c2c1` [Compound 67]: 7.00 to 8.30 and below 5.00. For `COc1ccc2c(Sc3ccccc3[N+](=O)[O-])cn(Cc3cc(F)ccc3F)c2c1` [Compound 1], in that order: 7.00 to 8.30 and below 5.00. For `COc1ccc2c(Sc3cccc[n+]3[O-])cn(Cc3cc(F)cc(F)c3)c2c1` [Compound 66], the negative logarithm of the EC50 (pEC50) is above 6.00 in assay [1] (setting [3]) and 7.00 to 8.30 in assay [2] (setting [4]). Turning to `O=C(c1ccc2c(Sc3ccccc3[N+](=O)[O-])cn(Cc3cc(F)cc(F)c3)c2c1)N1CCOCC1` [Compound 28], the negative logarithm of the EC50 (pEC50) is 7.00 to 8.30 in assay [1] (setting [3]) and below 5.00 in assay [2] (setting [4]). The matching figures for `COc1ccc2c(Sc3ccccc3[N+](=O)[O-])cn(Cc3ccc(Cl)c(C(F)(F)F)c3)c2c1` [Compound 76]: above 6.00 and below 5.00. For `COc1ccc2c(Sc3ccccc3[N+](=O)[O-])cn(Cc3ccccc3Cl)c2c1` [Compound 3], in that order: above 6.00 and below 5.00.

On to `CCNC(=O)c1ccc2c(Sc3ccccc3[N+](=O)[O-])cn(Cc3cc(F)cc(F)c3)c2c1` [Compound 45], for which the pEC50 was above 8.30 in assay [1] (setting [3]) and below 5.00 in assay [2] (setting [4]). The matching figures for `CC(C)NC(=O)c1ccc2c(Sc3ccccc3[N+](=O)[O-])cn(Cc3cc(F)cc(F)c3)c2c1` [Compound 46]: 7.00 to 8.30 and 7.00 to 8.30.

For `O=[N+]([O-])c1ccccc1Sc1cn(Cc2cc(F)cc(F)c2)c2cccc(F)c12` [Compound 51], the pEC50 in assay [1] (setting [3]) is above 8.30; in assay [2] (setting [4]), below 5.00. For `COc1ccc2c(Sc3ccccc3C#N)cn(Cc3cc(F)cc(F)c3)c2c1` [Compound 20, 2-[1-(3,5-Difluoro-benzyl)-6-methoxy-1H-indol-3-ylsulfanyl]-benzonitrile], in that order: 7.00 to 8.30 and below 5.00. For the molecule `O=[N+]([O-])c1ccccc1Sc1cn(Cc2ccccc2)c2ccccc12` [Compound 90], the pEC50 in assay [1] (setting [3]) was above 6.00; in assay [2] (setting [4]), below 5.00. The matching figures for `COc1ccc2c(Sc3ccccc3[N+](=O)[O-])cn(Cc3cccc(C)c3F)c2c1` [Compound 2]: above 6.00 and below 5.00.

On to `CCN(CC)C(=O)c1ccc2c(Sc3ccccc3[N+](=O)[O-])cn(Cc3cc(F)cc(F)c3)c2c1` [Compound 32], for which the pEC50 in assay [1] (setting [3]) is 7.00 to 8.30; in assay [2] (setting [4]), above 6.00. The matching figures for `COc1ccc2c(Sc3ccccc3[N+](=O)[O-])cn(Cc3ccc(C)cc3)c2c1` [Compound 85]: above 6.00 and below 5.00.

For `COc1ccc2c(Sc3ccccn3)cn(Cc3cc(F)cc(F)c3)c2c1` [Compound 65, 1-(3,5-Difluoro-benzyl)-6-methoxy-3-(pyridin-2-ylsulfanyl)-1H-indole], the figures for the negative logarithm of the EC50 (pEC50) in assay [1] (setting [3]) and in assay [2] (setting [4]) were 7.00 to 8.30 and below 5.00, respectively. For `COc1ccc2c(Sc3ccccc3[N+](=O)[O-])cn(Cc3c(C)noc3C)c2c1` [Compound 80], in that order: above 6.00 and above 6.00.

For the molecule `COc1ccc2c(Sc3ccccc3[N+](=O)[O-])cn(Cc3ccccc3C(F)(F)F)c2c1` [Compound 12], the pEC50 is above 6.00 in assay [1] (setting [3]) and below 5.00 in assay [2] (setting [4]). The matching figures for `O=C(O)c1ccc2c(Sc3ccccc3[N+](=O)[O-])cn(Cc3cc(F)cc(F)c3)c2c1` [Compound 30, 1-(3,5-Difluoro-benzyl)-3-(2-nitro-phenylsulfanyl)-1H-indole-6-carboxylic acid]: above 6.00 and below 5.00. For `COc1ccc2c(Sc3ccccc3C(N)=O)cn(Cc3cc(F)cc(F)c3)c2c1` [Compound 18, 2-[1-(3,5-Difluoro-benzyl)-6-methoxy-1H-indol-3-ylsulfanyl]-benzamide], in that order: 7.00 to 8.30 and 7.00 to 8.30.

Turning to `O=C(NC1CC1)c1ccc2c(Sc3ccccc3[N+](=O)[O-])cn(Cc3cc(F)cc(F)c3)c2c1` [Compound 44], the values for the pEC50 in assay [1] (setting [3]) and in assay [2] (setting [4]) were above 8.30 and below 5.00, respectively. For the molecule `CC(=O)Nc1ccc2c(Sc3ccccc3[N+](=O)[O-])cn(Cc3cc(F)cc(F)c3)c2c1` [Compound 58, N-[1-(3,5-Difluoro-benzyl)-3-(2-nitro-phenylsulfanyl)-1H-indol-6-yl]-acetamide], the pEC50 in assay [1] (setting [3]) was above 8.30; in assay [2] (setting [4]), below 5.00. The matching figures for `O=C(NCc1cccnc1)c1ccc2c(Sc3ccccc3[N+](=O)[O-])cn(Cc3cc(F)cc(F)c3)c2c1` [Compound 35]: 7.00 to 8.30 and below 5.00.

In the case of `COc1ccc2c(Sc3ccccc3[N+](=O)[O-])cn(Cc3cccnc3)c2c1` [Compound 75], the figures for the pEC50 in assay [1] (setting [3]) and in assay [2] (setting [4]) were above 8.30 and below 5.00, respectively.

Turning to `O=[N+]([O-])c1ccccc1Sc1cn(Cc2cc(F)cc(F)c2)c2cc(C(F)(F)F)ccc12` [Compound 23], the values for the pEC50 in assay [1] (setting [3]) and in assay [2] (setting [4]) were above 8.30 and below 5.00, respectively.

`O=C(NCC1CC1)c1ccc2c(Sc3ccccc3[N+](=O)[O-])cn(Cc3cc(F)cc(F)c3)c2c1` [Compound 41]: the pEC50 in assay [1] (setting [3]) is above 8.30; in assay [2] (setting [4]) it was below 5.00. Regarding `O=[N+]([O-])c1ccccc1Sc1cn(Cc2cc(F)cc(F)c2)c2ccc(O)cc12` [Compound 56], the negative logarithm of the EC50 (pEC50) in assay [1] (setting [3]) is above 8.30.

As to `O=[N+]([O-])c1ccccc1Sc1cn(Cc2cc(F)cc(F)c2)c2cc(O)ccc12` [Compound 61, 1-(3,5-Difluoro-benzyl)-3-(2-nitro-phenylsulfanyl)-1H-indol-6-ol], in assay [1] (setting [3]), the pEC50 is above 8.30.
